Structures can show the parent of a compound that is named as a salt.

By Kd is commonly meant the free concentration of one partner at which half of the binding sites on the other are occupied at equilibrium, for simple one-to-one binding. Higher therefore signals lower affinity. The term IC50 denotes the concentration at which inhibition is half-maximal.

The first experiment deals with rats with inflammatory pain induced by injection of an adjuvant (CFA).
Test: not given
Conditions: background statement on the positive control; cited from earlier work.
As to `COc1ccc2c(c1)c(CC(=O)O)c(C)n2C(=O)c1ccc(Cl)cc1` [indomethacin], the “efficacy in the CFA model” value was “demonstrated efficacy”.

The target of the next experiment is T1, FRK (Homo sapiens, UniProt P42685).
T1 construct: either the full length protein or with a kinase construct that spans the catalytic domain
T1 sequence (P42685 whole entry, the tested form may be a part): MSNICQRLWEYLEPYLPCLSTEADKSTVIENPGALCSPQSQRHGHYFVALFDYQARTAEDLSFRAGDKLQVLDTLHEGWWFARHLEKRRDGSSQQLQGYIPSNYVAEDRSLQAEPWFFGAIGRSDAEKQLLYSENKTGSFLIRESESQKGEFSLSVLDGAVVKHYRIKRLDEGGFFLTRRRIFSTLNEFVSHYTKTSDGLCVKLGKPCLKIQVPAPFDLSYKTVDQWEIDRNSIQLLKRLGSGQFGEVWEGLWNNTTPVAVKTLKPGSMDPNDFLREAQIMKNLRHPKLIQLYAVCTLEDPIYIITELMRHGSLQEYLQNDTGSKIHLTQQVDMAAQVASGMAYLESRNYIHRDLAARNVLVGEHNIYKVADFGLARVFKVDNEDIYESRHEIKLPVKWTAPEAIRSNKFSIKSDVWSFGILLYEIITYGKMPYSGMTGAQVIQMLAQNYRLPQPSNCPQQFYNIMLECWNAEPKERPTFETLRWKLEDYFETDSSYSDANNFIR
In words: Binding affinity (Kd), KinomeScan kinase binding assay. As to conditions: FRK inhibitor. From the text:
The assay can be performed with either the full length protein or with a kinase construct that spans the catalytic domain.
Regarding `CCOc1cc2ncc(C#N)c(Nc3ccc(F)c(Cl)c3)c2cc1NC(=O)/C=C/CN(C)C` [Pelitinib], the Kd is 190 nM.

The target of a further experiment is T2, human PDE4D (Homo sapiens, UniProt Q08499).
T2 construct: The cloning of catalytic domains of human PDE4D as well as the expression and purification of the PDE catalytic domains; made in house
T2 sequence (Q08499 386-715 limits assumed): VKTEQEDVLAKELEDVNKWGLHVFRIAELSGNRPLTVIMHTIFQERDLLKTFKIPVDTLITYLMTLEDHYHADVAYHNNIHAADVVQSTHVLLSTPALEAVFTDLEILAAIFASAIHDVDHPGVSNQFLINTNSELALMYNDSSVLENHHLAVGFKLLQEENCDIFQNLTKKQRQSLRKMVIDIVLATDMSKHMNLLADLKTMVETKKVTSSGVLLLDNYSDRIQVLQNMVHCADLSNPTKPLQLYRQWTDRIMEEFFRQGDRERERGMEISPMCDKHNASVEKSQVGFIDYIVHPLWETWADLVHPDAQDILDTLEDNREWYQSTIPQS
In words: Measurement of PDE4D activity and determination of IC50 (scintillation bead assay, 3H-cAMP). As to conditions: PDE4D inhibitor. Type of experiment: biochemical. How it is done:
The half maximal inhibitory concentration (IC50) is a measure of the effectiveness of a compound in inhibiting biological or biochemical function. Concentration-response plots are used to determine the effects of an inhibitor on an enzymatic reaction.
Measurement of phosphodiesterase activity takes advantage of the selective binding of 5-AMP or 5-GMP (and not cAMP or cGMP) to yttrium silicate beads with embedded scintillant. 0.1-1 nM PDE was incubated with 50 nM 3H-cAMP or 70 nM 3H-cGMP (Amersham, 5-60 Ci/mmol) in 50 mM Tris (pH 7.5), 8.3 mM MgCl2, 1.7 mM EGTA, and 0.01% BSA at 30 C for 30 min in 384-well assay plates. The assay was terminated by adding one-third volume of 5 mg/ml yttrium silicate beads in 18 mM ZnAcetate/ZnSO4 solution (3:1). A minimum of 30 min after mixing and centrifuging the reaction, hydrolysis was quantified by reading in a scintillation counter (Trilux, […] Wallac).
The compound `CCC1C(C)=NN=C(c2ccc(OC)c(OC)c2)c2cc(OC)c(OC)cc21` (centres unmarked) [Tofisopam, 1-(3,4-dimethoxyphenyl)-5-ethyl-7,8-dimethoxy-4-methyl-5H-2,3-benzodiazepine] returned an IC50 of 900 nM.

As to `COc1ccc([C@H](Cc2ccncc2)c2ccccc2)cc1OC1CCCC1` [CDP-840, 4-[(2R)-2-[3-(Cyclopentyloxy)-4-methoxyphenyl]-2-phenylethyl]-pyridine hydrochloride], 2.1 nM corresponded to half-maximal inhibition (IC50).

As for `CCOc1ccc(-c2nc(-c3cccc(C(=O)O)n3)cs2)cc1OCC` [Tetomilast, 6-[2-(3,4-diethoxyphenyl)-1,3-thiazol-4-yl]pyridine-2-carboxylic acid], the IC50 turned out to be 70 nM.

`O=C(Nc1c(Cl)c[n+]([O-])cc1Cl)c1ccc(OC(F)F)c2oc3ccncc3c12` [Revamilast]: the IC50 turned out to be 2.7 nM.

Tolafentrine registered an IC50 of 30 nM.

`CCNc1ncn(Cc2ccc(OC)c(OC3CCCC3)c2)c2nc(C(C)C)nc1-2` [V11294, -[(3-cyclopentyloxy-4-methoxyphenyl)methyl]-N-ethyl-8-propan-2-ylpurin-6-amine:]: the IC50 was 200 nM.

For `CS(=O)(=O)Nc1ccc2oc3c(OC(F)F)ccc(C(=O)Nc4c(Cl)cncc4Cl)c3c2c1` [oglemilast], the IC50 was 166 nM.

On to `Cc1c[n+]([O-])ccc1CC(c1ccc(C(O)(C(F)(F)F)C(F)(F)F)cc1)c1ccc(OC(F)F)c(OC(F)F)c1` [L-826,141, 4-[2-[3,4-Bis(difluoromethoxy)phenyl]-2-[4-[2,2,2-trifluoro-1-hydroxy-1-(trifluoro-methyl)ethyl]phenyl]ethyl]-3-methylpyridine N-oxide], for which the half-inhibitory concentration (IC50) amounted to 2.4 nM.

Regarding `O=C(Nc1c(Cl)cncc1Cl)C(=O)c1cn(Cc2ccc(F)cc2)c2ncccc12` [Ronomilast], the IC50 came to 3.5 nM.

On to `COc1ccc(/C(C)=N/OC(N)=O)cc1OC1CCCC1` [Filaminast], for which 1000 nM corresponded to half-maximal inhibition (IC50).

For `CCCOc1cc([C@]2(C)CNC(=O)O2)ccc1OC` [Daxalipram], the IC50 is 1100 nM.

Another experiment has as its system rats with peripheral mononeuropathy induced by loose ligation of the sciatic nerve.
Test: not given
Conditions: background statement; cited from earlier work.
For `CC(C)C[C@H](CN)CC(=O)O` [Pregabalin], the “ameliorating symptoms of pain in the CCl model” value is recorded as “effective at ameliorating symptoms of pain”.

The record behind these values is patent publication US20130252924A1, “Compounds and Methods for Treating Pain” (AKRON MOLECULES GMBH, priority 2010, published 2013).
